Assay results taken from patent US20230330093A1, “APPLICATION OF NITROGEN-CONTAINING SATURATED HETEROCYCLIC COMPOUND” (SHANGHAI PHARMACEUTICALS HOLDING CO., LTD., priority 2020, published 2023).

System: cynomolgus monkeys
Assay: 4-week safety study: routine ECG analysis
Assay type: in vivo
Settings: for QRS / QT / QTc / HR: Male
Description: Routine ECG analysis was performed at each scheduled time (day 1 after administration, d01 and d02 after administration, 1 and 24 h after administration on day 1, before administration, and 1 and 24 h after administration on day 26 and day 56). P-wave, R-wave, T-wave, P-R intervals, Q-T intervals, QRS duration and heart rate were recorded by an ECG system using derivation DII (ECG-6951E, Shanghai, China).

SMILES: COC(=O)NCCCn1nc([C@@H](C)N(C(=O)[C@H]2CNCCO2)C2CC2)c2ccc(C)nc21 [compound of Formula I]
- QRS (20 mg/kg, 1 h (d 1)): 32.0 ± 4.5 ms
- QT (20 mg/kg, 1 h (d 1)): 158.0 ± 11.0 ms
- QTc (20 mg/kg, 1 h (d 1)): 241.4 ± 12.3 ms
- HR (20 mg/kg, 1 h (d 26)): 260.0 ± 12.4 bmp
- QRS (20 mg/kg, 1 h (d 26)): 36.0 ± 5.5 ms
- QT (20 mg/kg, 1 h (d 26)): 146.0 ± 11.4 ms
- QTc (20 mg/kg, 1 h (d 26)): 237.8 ± 16.3 ms
- HR (20 mg/kg, 24 h (d 1)): 206.1 ± 20.7 bmp
- QRS (20 mg/kg, 24 h (d 1)): 28.0 ± 4.5 ms
- QT (20 mg/kg, 24 h (d 1)): 166.0 ± 8.9 ms
- QTc (20 mg/kg, 24 h (d 1)): 250.0 ± 10.4 ms
- HR (20 mg/kg, 24 h (d 26)): 264.9 ± 16.1 bmp
- QRS (20 mg/kg, 24 h (d 26)): 34.0 ± 5.5 ms
- QT (20 mg/kg, 24 h (d 26)): 146.0 ± 11.4 ms
- QTc (20 mg/kg, 24 h (d 26)): 239.2 ± 14.8 ms
- HR (20 mg/kg, d0): 198.4 ± 16.5 bmp
- QRS (20 mg/kg, d0): 34.0 ± 8.9 ms
- QT (20 mg/kg, d0): 164.0 ± 11.4 ms
- QTc (20 mg/kg, d0): 243.9 ± 11.7 ms
- HR (20 mg/kg, d 56): 225.6 ± 2.4 bmp
- QRS (20 mg/kg, d 56): 30.0 ± 0.0 ms
- QT (20 mg/kg, d 56): 145.0 ± 7.1 ms
- QTc (20 mg/kg, d 56): 225.4 ± 10.2 ms
- HR (100 mg/kg, 1 h (d 1)): 230.0 ± 19.9 bmp
- QRS (100 mg/kg, 1 h (d 1)): 38.0 ± 4.5 ms
- QT (100 mg/kg, 1 h (d 1)): 156.0 ± 11.4 ms
- QTc (100 mg/kg, 1 h (d 1)): 243.8 ± 16.5 ms
- HR (100 mg/kg, 1 h (d 26)): 256.9 ± 16.7 bmp
- QRS (100 mg/kg, 1 h (d 26)): 36.0 ± 5.5 ms
- QT (100 mg/kg, 1 h (d 26)): 144.0 ± 5.5 ms
- QTc (100 mg/kg, 1 h (d 26)): 233.8 ± 12.2 ms
- HR (100 mg/kg, 24 h (d 1)): 208.2 ± 10.4 bmp
- QRS (100 mg/kg, 24 h (d 1)): 36.0 ± 8.9 ms
- QT (100 mg/kg, 24 h (d 1)): 162.0 ± 11.0 ms
- QTc (100 mg/kg, 24 h (d 1)): 245.3 ± 18.6 ms
- HR (100 mg/kg, 24 h (d 26)): 260.7 ± 9.1 bmp
- QRS (100 mg/kg, 24 h (d 26)): 36.0 ± 5.5 ms
- QT (100 mg/kg, 24 h (d 26)): 144.0 ± 8.9 ms
- QTc (100 mg/kg, 24 h (d 26)): 234.9 ± 13.9 ms
- HR (100 mg/kg, d0): 215.4 ± 11.2 bmp
- QRS (100 mg/kg, d0): 32.0 ± 8.4 ms
- QT (100 mg/kg, d0): 154.0 ± 16.7 ms
- QTc (100 mg/kg, d0): 235.6 ± 24.5 ms
- HR (100 mg/kg, d 56): 225.6 ± 2.4 bmp
- QRS (100 mg/kg, d 56): 35.0 ± 7.1 ms
- QT (100 mg/kg, d 56): 165.0 ± 7.1 ms
- QTc (100 mg/kg, d 56): 256.6 ± 11.9 ms
- HR (450 mg/kg, 1 h (d 1)): 217.4 ± 3.2 bmp
- QRS (450 mg/kg, 1 h (d 1)): 36.7 ± 5.8 ms
- QT (450 mg/kg, 1 h (d 1)): 170.0 ± 10.0 ms
- QTc (450 mg/kg, 1 h (d 1)): 261.1 ± 16.0 ms
- HR (450 mg/kg, 1 h (d 26)): 247.6 ± 22.6 bmp
- QRS (450 mg/kg, 1 h (d 26)): 36.0 ± 13.4 ms
- QT (450 mg/kg, 1 h (d 26)): 150.0 ± 17.3 ms
- QTc (450 mg/kg, 1 h (d 26)): 240.0 ± 23.7 ms
- HR (450 mg/kg, 24 h (d 1)): 211.0 ± 15.9 bmp
- QRS (450 mg/kg, 24 h (d 1)): 32.0 ± 4.5 ms
- QT (450 mg/kg, 24 h (d 1)): 166.0 ± 8.9 ms
- QTc (450 mg/kg, 24 h (d 1)): 252.1 ± 9.4 ms
- HR (450 mg/kg, 24 h (d 26)): 210.4 ± 49.9 bmp
- QRS (450 mg/kg, 24 h (d 26)): 38.0 ± 4.5 ms
- QT (450 mg/kg, 24 h (d 26)): 158.0 ± 13.0 ms
- QTc (450 mg/kg, 24 h (d 26)): 237.7 ± 12.2 ms
- HR (450 mg/kg, d0): 214.3 ± 17.7 bmp
- QRS (450 mg/kg, d0): 34.0 ± 5.5 ms
- QT (450 mg/kg, d0): 156.0 ± 5.5 ms
- QTc (450 mg/kg, d0): 238.2 ± 7.2 ms
- HR (450 mg/kg, d 56): 203.3 ± 15.5 bmp
- QRS (450 mg/kg, d 56): 35.0 ± 7.1 ms
- QT (450 mg/kg, d 56): 160.0 ± 0.0 ms
- QTc (450 mg/kg, d 56): 240.2 ± 6.1 ms
- QRS intervals (high-dose females, 1 h after administration on d1 and d26): Prolonged
- QRS intervals (one high-dose male (animal No. 411), 1 h after administration on d26, prolonged): 60 ms
- Sinus arrhythmia (one high-dose male, 1 h after administration on d26): Sinus arrhythmia was observed in one high-dose male
- QTc intervals (one mid-dose female (animal No. 303), 1 h after administration on d26, prolonged): 296 ms
